Experimental data published in patent US12152024B2, “Pesticidally active heterocyclic derivatives with sulphur and hydroxylamine substituents” (SYNGENTA PARTICIPATIONS AG, priority 2016, dated 2024).

Key:
Format in all cases: in vivo
[1] = test system: Plutella xylostella (Diamond Back Moth); assay: Activity against Plutella xylostella (diamond back moth), artificial diet; conditions: for percent effect (mortality or growth inhibition) at 200 ppm: 120 h, application rate 200 ppm, L2 larvae, 5 days after infestation, read-out: effect in at least one of the two categories (mortality or growth inhibition)
Method: (§1) 24-well microtiter plates with artificial diet were treated with aqueous test solutions prepared from 10′000 ppm DMSO stock solutions by pipetting. After drying, the plates were infested with L2 larvae (10 to 15 per well). The samples were assessed for mortality and growth inhibition in comparison to untreated samples 5 days after infestation.

[2] = test system: Diabrotica balteata (corn root worm); assay: Activity against Diabrotica balteata (corn root worm), maize sprouts sprayed; conditions: for percent effect (mortality or growth inhibition) at 200 ppm: 96 h, application rate 200 ppm, L2 larvae, 4 days after infestation, read-out: effect in at least one of the two categories (mortality or growth inhibition)
Method: as §1, with “Maize sprouts placed onto an agar layer in 24-well” for “24-well”, “plates” for “plates with artificial diet”, “spraying.” for “pipetting.”, “(6” for “(10”, “10” for “15”, “4” for “5”

[3] = test system: Spodoptera littoralis (Egyptian Cotton Leaf Worm); assay: Activity against Spodoptera littoralis (Egyptian cotton leaf worm), cotton leaf discs sprayed; conditions: for percent control (mortality, anti-feedant effect or growth inhibition) at 200 ppm: foliar, 72 h, application rate 200 ppm, L1 larvae, 3 days after infestation, read-out: control (mortality, anti-feeding effect or growth inhibition)
Method: Cotton leaf discs were placed onto agar in 24-well microtiter plates and sprayed with aqueous test solutions prepared from 10′000 ppm DMSO stock solutions. After drying the leaf discs were infested with five L1 larvae. The samples were assessed for mortality, anti-feeding effect, and growth inhibition in comparison to untreated samples 3 days after infestation. Control of Spodoptera littoralis by a test sample is given when at least one of the categories mortality, anti-feedant effect, and growth inhibition is higher than the untreated sample.

[4] = test system: Myzus persicae (Green Peach Aphid); assay: Activity against Myzus persicae (green peach aphid): feeding/contact activity; conditions: for mortality at 200 ppm: Myzus persicae, 144 h, application rate 200 ppm, feeding/contact, mixed ages, 6 days after infestation
Method: Sunflower leaf discs were placed onto agar in a 24-well microtiter plate and sprayed with aqueous test solutions prepared from 10′000 ppm DMSO stock solutions. After drying, the leaf discs were infested with an aphid population of mixed ages. The samples were assessed for mortality 6 days after infestation.

[5] = test system: Euschistus heros (Neotropical Brown Stink Bug); assay: Activity against Euschistus heros (neotropical brown stink bug), soybean leaves sprayed; conditions: 120 h, application rate 200 ppm, N2 nymphs, 5 days after infestation, read-out: effect in at least one of the two categories (mortality or growth inhibition)
Method: Soybean leaves on agar in 24-well microtiter plates were sprayed with aqueous test solutions prepared from 10′000 ppm DMSO stock solutions. After drying the leaves were infested with N2 nymphs. The samples were assessed for mortality and growth inhibition in comparison to untreated samples 5 days after infestation.

[6] = test system: Bemisia tabaci (Cotton White Fly); assay: Activity against Bemisia tabaci (cotton white fly); conditions: 144 h, application rate 200 ppm, adult white flies, 6 days after incubation
Method: Cotton leaf discs were placed on agar in 24-well microtiter plates and sprayed with aqueous test solutions prepared from 10′000 ppm DMSO stock solutions. After drying the leaf discs were infested with adult white flies. The samples were checked for mortality 6 days after incubation.

[7] = test system: Myzus persicae (Green Peach Aphid); assay: Activity against Myzus persicae (green peach aphid): systemic activity; conditions: for mortality at 24 ppm: Myzus persicae, 144 h, test rate 24 ppm, systemic, pea seedling roots in test solution, 6 days
Method: Roots of pea seedlings infested with an aphid population of mixed ages were placed directly into aqueous test solutions prepared from 10′000 DMSO stock solutions. The samples were assessed for mortality 6 days after placing seedlings into test solutions.

| Structure (SMILES) | percent effect (mortality or growth inhibition) at 200 ppm [1] | percent effect (mortality or growth inhibition) at 200 ppm [2] | percent control (mortality, anti-feedant effect or growth inhibition) at 200 ppm [3] | mortality at 200 ppm [4] | percent effect (mortality or growth inhibition) at 200 ppm [5] | mortality at 200 ppm [6] | mortality at 24 ppm [7] | Mortality (%) ([1]; concentration 12.5 ppm) | Mortality (%) ([2]; concentration 50 ppm) | Mortality (%) ([3]; concentration 12.5 ppm) | Mortality (%) ([7]; Myzus persicae (systemic), concentration 1.5 ppm) | Mortality (%) ([4]; Myzus persicae (feeding/contact), concentration 50 ppm) |
| --- | --- | --- | --- | --- | --- | --- | --- | --- | --- | --- | --- | --- |
| CCSc1cccnc1-c1nc2cc(C(F)(F)F)n(OC)c(=O)c2n1C [Compound A1, 2-(3-ethylsulfanyl-2-pyridyl)-5-methoxy-3-methyl-6-(trifluoromethyl) imidazo[4,5-c]pyridin-4-one] | ≥ 80% | ≥ 80% | ≥ 80% | ≥ 80% | – | – | – | – | – | – | – | – |
| CCS(=O)(=O)c1ccc(-n2ccnn2)nc1-c1nc2cc(C(F)(F)F)n(OC)c(=O)c2n1C [Compound A4, 2-[3-ethylsulfonyl-6-(triazol-1-yl)-2-pyridyl]-5-methoxy-3-methyl-6-(trifluoromethyl)imidazo[4,5-c]pyridin-4-one] | ≥ 80% | ≥ 80% | ≥ 80% | ≥ 80% | ≥ 80% | ≥ 80% | ≥ 80% | – | – | – | – | – |
| CCS(=O)(=O)c1ccc(-n2nccn2)nc1-c1nc2cc(C(F)(F)F)n(OC)c(=O)c2n1C [Compound A5, 2-[3-ethylsulfonyl-6-(triazol-2-yl)-2-pyridyl]-5-methoxy-3-methyl-6-(trifluoromethyl)imidazo[4,5-c]pyridin-4-one] | ≥ 80% | ≥ 80% | ≥ 80% | ≥ 80% | ≥ 80% | – | ≥ 80% | – | – | – | – | – |
| CCS(=O)(=O)c1cc(C(F)(F)F)cnc1-c1nc2cc(C(F)(F)F)n(OC)c(=O)c2n1C [Compound A6, 2-[3-ethylsulfonyl-5-(trifluoromethyl)-2-pyridyl]-5-methoxy-3-methyl-6-(trifluoromethyl)imidazo[4,5-c]pyridin-4-one] | ≥ 80% | ≥ 80% | ≥ 80% | ≥ 80% | ≥ 80% | – | ≥ 80% | – | – | – | – | – |
| CCS(=O)(=O)c1ccccc1-c1nc2cc(C(F)(F)F)n(OC)c(=O)c2n1C [Compound A7, 2-(2-ethylsulfonylphenyl)-5-methoxy-3-methyl-6-(trifluoromethyl)imidazo[4,5-c]pyridin-4-one] | ≥ 80% | ≥ 80% | ≥ 80% | ≥ 80% | ≥ 80% | – | ≥ 80% | – | – | – | – | – |
| CCS(=O)(=O)c1ccc(N)nc1-c1nc2cc(C(F)(F)F)n(OC)c(=O)c2n1C [Compound A13, 2-(6-amino-3-ethylsulfonyl-2-pyridyl)-5-methoxy-3-methyl-6-(trifluoromethyl)imidazo[4,5-c]pyridin-4-one] | ≥ 80% | ≥ 80% | ≥ 80% | ≥ 80% | ≥ 80% | ≥ 80% | ≥ 80% | – | – | – | – | – |
| CCS(=O)(=O)c1cc(Cl)c(N)nc1-c1nc2cc(C(F)(F)F)n(OC)c(=O)c2n1C [Compound A14, 2-(6-amino-5-chloro-3-ethylsulfonyl-2-pyridyl)-5-methoxy-3-methyl-6-(trifluoromethyl)imidazo[4,5-c]pyridin-4-one] | ≥ 80% | ≥ 80% | ≥ 80% | ≥ 80% | ≥ 80% | ≥ 80% | ≥ 80% | – | – | – | – | – |
| CCS(=O)(=O)c1cc(C(C)(C)C#N)ccc1-c1nc2cc(C(F)(F)F)n(OC)c(=O)c2n1C [Compound A15, 2-[3-ethylsulfonyl-4-[5-methoxy-3-methyl-4-oxo-6-(trifluoromethyl)imidazo[4,5-c]pyridin-2-yl]phenyl]-2-methyl-propanenitrile] | ≥ 80% | ≥ 80% | – | ≥ 80% | ≥ 80% | ≥ 80% | ≥ 80% | – | – | – | – | – |
| CCS(=O)(=O)c1cc(Br)c(N)nc1-c1nc2cc(C(F)(F)F)n(OC)c(=O)c2n1C [Compound A16, 2-(6-amino-5-bromo-3-ethylsulfonyl-2-pyridyl)-5-methoxy-3-methyl-6-(trifluoromethyl)imidazo[4,5-c]pyridin-4-one] | ≥ 80% | ≥ 80% | ≥ 80% | ≥ 80% | ≥ 80% | – | – | – | – | – | – | – |
| CCSc1cc(Br)cnc1-c1nc2cc(C(F)(F)F)n(OC)c(=O)c2n1C [Compound A19, 2-(5-bromo-3-ethylsulfanyl-2-pyridyl)-5-methoxy-3-methyl-6-(trifluoromethyl)imidazo[4,5-c]pyridin-4-one] | ≥ 80% | ≥ 80% | ≥ 80% | ≥ 80% | ≥ 80% | – | – | – | – | – | – | – |
| CCSc1cc(C(F)(F)F)cnc1-c1nc2cc(C(F)(F)F)n(OC)c(=O)c2n1C [Compound A21, 2-[3-ethylsulfanyl-5-(trifluoromethyl)-2-pyridyl]-5-methoxy-3-methyl-6-(trifluoromethyl)imidazo[4,5-c]pyridin-4-one] | ≥ 80% | ≥ 80% | ≥ 80% | ≥ 80% | ≥ 80% | – | – | – | – | – | – | – |
| CCSc1ccccc1-c1nc2cc(C(F)(F)F)n(OC)c(=O)c2n1C [Compound A22, 2-(2-ethylsulfanylphenyl)-5-methoxy-3-methyl-6-(trifluoromethyl)imidazo[4,5-c]pyridin-4-one] | ≥ 80% | ≥ 80% | ≥ 80% | ≥ 80% | ≥ 80% | – | ≥ 80% | – | – | – | – | – |
| CCSc1cc(C2(C#N)CC2)ccc1-c1nc2cc(C(F)(F)F)n(OC)c(=O)c2n1C [Compound A23, 1-[3-ethylsulfanyl-4-[5-methoxy-3-methyl-4-oxo-6-(trifluoromethyl)imidazo[4,5-c]pyridin-2-yl]phenyl]cyclopropanecarbonitrile] | ≥ 80% | ≥ 80% | ≥ 80% | – | ≥ 80% | – | – | – | – | – | – | – |
| CCSc1cc(C(C)(C)C#N)cnc1-c1nc2cc(C(F)(F)F)n(OC)c(=O)c2n1C [Compound A24, 2-[5-ethylsulfanyl-6-[5-methoxy-3-methyl-4-oxo-6-(trifluoromethyl)imidazo[4,5-c]pyridin-2-yl]-3-pyridyl]-2-methyl-propanenitrile] | ≥ 80% | ≥ 80% | – | – | ≥ 80% | – | – | – | – | – | – | – |
| CCSc1cc(C(C)(C)C#N)ccc1-c1nc2cc(C(F)(F)F)n(OC)c(=O)c2n1C [Compound A25, 2-[3-ethylsulfanyl-4-[5-methoxy-3-methyl-4-oxo-6-(trifluoromethyl)imidazo[4,5-c]pyridin-2-yl]phenyl]-2-methyl-propanenitrile] | – | ≥ 80% | – | – | ≥ 80% | – | – | – | – | – | – | – |
| CCS(=O)(=O)c1cccnc1-c1nc2cc(C(F)(F)F)n(OC)c(=O)c2n1C [drawing 144, reference compound] | – | – | – | – | – | – | – | 0% | 0% | 0% | 0% | 50% |
